From PubChem BioAssay AID1963986 (Molecular Pharmacology Branch, DTP, NCI, 2024)

System: 171881-019-R-J1-PDC tumor spheroid viability
Test: Anticancer human tumor 171881-019-R-J1-PDC patient-derived invasive breast carcinoma cell line growth inhibition [PI3K]
Settings: spheroids with HUVEC and MSC; for IC50: curve of first compound; for viability, T/C: stronger effect = lower value
Procedure, shortened: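 Multi-cell spheroids combine tumor cells with HUVEC and human MSCs, treated with targeted agents alone or with inavolisib, alpelisib, duvelisib or copanlisib. Concentrations fall in half-log steps from at or near clinical Cmax, or from 10 microM where Cmax is unknown; viability read-out.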

[1] = second compound 0.00316 µM, first compound 0.0316 µM
[2] = second compound 0.00316 µM, first compound 0.1 µM
[3] = second compound 0.00316 µM, first compound 0.316 µM
[4] = second compound 0.00316 µM, first compound 1 µM
[5] = second compound 0.00316 µM, first compound 3.16 µM
[6] = second compound 0.00316 µM, first compound 10 µM
[7] = second compound 0.01 µM, first compound 0.0316 µM
[8] = second compound 0.01 µM, first compound 0.1 µM
[9] = second compound 0.01 µM, first compound 0.316 µM
[10] = second compound 0.01 µM, first compound 1 µM
[11] = second compound 0.01 µM, first compound 3.16 µM
[12] = second compound 0.01 µM, first compound 10 µM
[13] = second compound 0.0316 µM, first compound 0.0316 µM
[14] = second compound 0.0316 µM, first compound 0.1 µM
[15] = second compound 0.0316 µM, first compound 0.316 µM
[16] = second compound 0.0316 µM, first compound 1 µM
[17] = second compound 0.0316 µM, first compound 3.16 µM
[18] = second compound 0.0316 µM, first compound 10 µM
[19] = second compound 0.1 µM, first compound 0.0316 µM
[20] = second compound 0.1 µM, first compound 0.1 µM
[21] = second compound 0.1 µM, first compound 0.316 µM
[22] = second compound 0.1 µM, first compound 1 µM
[23] = second compound 0.1 µM, first compound 3.16 µM
[24] = second compound 0.1 µM, first compound 10 µM
[25] = second compound 0.316 µM, first compound 0.0316 µM
[26] = second compound 0.316 µM, first compound 0.1 µM
[27] = second compound 0.316 µM, first compound 0.316 µM
[28] = second compound 0.316 µM, first compound 1 µM
[29] = second compound 0.316 µM, first compound 3.16 µM
[30] = second compound 0.316 µM, first compound 10 µM
[31] = second compound 1 µM, first compound 0.0316 µM
[32] = second compound 1 µM, first compound 0.1 µM
[33] = second compound 1 µM, first compound 0.316 µM
[34] = second compound 1 µM, first compound 1 µM
[35] = second compound 1 µM, first compound 3.16 µM
[36] = second compound 1 µM, first compound 10 µM
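Further: spheroids exposed to compound for 7 days before viability read.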
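Wherever viability, T/C is given: 100% = DMSO vehicle-treated spheroids.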

## C=CC(=O)N1CCN(c2nc(=O)n(-c3c(C)ccnc3C(C)C)c3nc(-c4c(O)cccc4F)c(F)cc23)C(C)C1 (stereo not drawn) + CC(Nc1ccc2c(c1)OCCn1cc(N3C(=O)OCC3C(F)F)nc1-2)C(N)=O
Second compound 0.00316 µM
  IC50: 9110 nM
Second compound 0.01 µM
  IC50: 7320 nM
Second compound 0.0316 µM
  IC50: 3970 nM
Second compound 0.1 µM
  IC50: < 31.6 nM
Second compound 0.316 µM
  IC50: < 31.6 nM
Second compound 1 µM
  IC50: < 31.6 nM
[1]
  viability, T/C: 96.8%
[2]
  viability, T/C: 90.1%
[3]
  viability, T/C: 92.8%
[4]
  viability, T/C: 93.1%
[5]
  viability, T/C: 88.5%
[6]
  viability, T/C: 46.6%
[7]
  viability, T/C: 79.5%
[8]
  viability, T/C: 84.9%
[9]
  viability, T/C: 78.5%
[10]
  viability, T/C: 84.6%
[11]
  viability, T/C: 79%
[12]
  viability, T/C: 39.1%
[13]
  viability, T/C: 52.7%
[14]
  viability, T/C: 56.2%
[15]
  viability, T/C: 52.1%
[16]
  viability, T/C: 57.7%
[17]
  viability, T/C: 54.7%
[18]
  viability, T/C: 31.7%
[19]
  viability, T/C: 37.6%
[20]
  viability, T/C: 37.8%
[21]
  viability, T/C: 40.2%
[22]
  viability, T/C: 36.3%
[23]
  viability, T/C: 39.2%
[24]
  viability, T/C: 22.1%
[25]
  viability, T/C: 26.1%
[26]
  viability, T/C: 29.2%
[27]
  viability, T/C: 27.8%
[28]
  viability, T/C: 30%
[29]
  viability, T/C: 26.7%
[30]
  viability, T/C: 12.6%
[31]
  viability, T/C: 20.2%
[32]
  viability, T/C: 21.7%
[33]
  viability, T/C: 20.7%
[34]
  viability, T/C: 22.6%
[35]
  viability, T/C: 20.7%
[36]
  viability, T/C: 10.7%

## CCN1CCN(Cc2ccc(Nc3ncc(F)c(-c4cc(F)c5nc(C)n(C(C)C)c5c4)n3)nc2)CC1 + CC(Nc1ccc2c(c1)OCCn1cc(N3C(=O)OCC3C(F)F)nc1-2)C(N)=O
Second compound 0.00316 µM
  IC50: > 1000 nM
Second compound 0.01 µM
  IC50: > 1000 nM
Second compound 0.0316 µM
  IC50: > 1000 nM
Second compound 0.1 µM
  IC50: < 3.16 nM
Second compound 0.316 µM
  IC50: < 3.16 nM
Second compound 1 µM
  IC50: < 3.16 nM
Second compound 0.00316 µM, first compound 0.00316 µM
  viability, T/C: 87%
Second compound 0.00316 µM, first compound 0.01 µM
  viability, T/C: 95.7%
[1]
  viability, T/C: 108%
[2]
  viability, T/C: 106%
[3]
  viability, T/C: 120%
[4]
  viability, T/C: 122%
Second compound 0.01 µM, first compound 0.00316 µM
  viability, T/C: 82.5%
Second compound 0.01 µM, first compound 0.01 µM
  viability, T/C: 77.5%
[7]
  viability, T/C: 85.9%
[8]
  viability, T/C: 84.9%
[9]
  viability, T/C: 95.7%
[10]
  viability, T/C: 109%
Second compound 0.0316 µM, first compound 0.00316 µM
  viability, T/C: 58%
Second compound 0.0316 µM, first compound 0.01 µM
  viability, T/C: 57.3%
[13]
  viability, T/C: 63.9%
[14]
  viability, T/C: 64.5%
[15]
  viability, T/C: 80.8%
[16]
  viability, T/C: 80.1%
Second compound 0.1 µM, first compound 0.00316 µM
  viability, T/C: 40%
Second compound 0.1 µM, first compound 0.01 µM
  viability, T/C: 38.3%
[19]
  viability, T/C: 47.2%
[20]
  viability, T/C: 48.2%
[21]
  viability, T/C: 63%
[22]
  viability, T/C: 70.2%
Second compound 0.316 µM, first compound 0.00316 µM
  viability, T/C: 27.6%
Second compound 0.316 µM, first compound 0.01 µM
  viability, T/C: 24.9%
[25]
  viability, T/C: 33.1%
[26]
  viability, T/C: 39.4%
[27]
  viability, T/C: 46.4%
[28]
  viability, T/C: 55.6%
Second compound 1 µM, first compound 0.00316 µM
  viability, T/C: 23.1%
Second compound 1 µM, first compound 0.01 µM
  viability, T/C: 20.7%
[31]
  viability, T/C: 26.6%
[32]
  viability, T/C: 28.5%
[33]
  viability, T/C: 36.4%
[34]
  viability, T/C: 50.1%

## Cn1ncc(Cl)c1-c1cc(C(=O)NC(CN)Cc2cccc(F)c2)sc1Cl (stereo not drawn) + CC(Nc1ccc2c(c1)OCCn1cc(N3C(=O)OCC3C(F)F)nc1-2)C(N)=O
Second compound 0.00316 µM
  IC50: 149 nM
Second compound 0.01 µM
  IC50: 134 nM
Second compound 0.0316 µM
  IC50: 54.2 nM
Second compound 0.1 µM
  IC50: < 31.6 nM
Second compound 0.316 µM
  IC50: < 31.6 nM
Second compound 1 µM
  IC50: < 31.6 nM
[1]
  viability, T/C: 70%
[2]
  viability, T/C: 59.1%
[3]
  viability, T/C: 34.8%
[4]
  viability, T/C: 21.2%
[5]
  viability, T/C: 12.9%
[6]
  viability, T/C: 4.9%
[7]
  viability, T/C: 64.1%
[8]
  viability, T/C: 58.1%
[9]
  viability, T/C: 31.4%
[10]
  viability, T/C: 17.3%
[11]
  viability, T/C: 12.5%
[12]
  viability, T/C: 4.16%
[13]
  viability, T/C: 53.6%
[14]
  viability, T/C: 46.4%
[15]
  viability, T/C: 29.3%
[16]
  viability, T/C: 15.6%
[17]
  viability, T/C: 11.4%
[18]
  viability, T/C: 4.17%
[19]
  viability, T/C: 40.4%
[20]
  viability, T/C: 33.5%
[21]
  viability, T/C: 24.6%
[22]
  viability, T/C: 15.1%
[23]
  viability, T/C: 10.2%
[24]
  viability, T/C: 4.94%
[25]
  viability, T/C: 27.2%
[26]
  viability, T/C: 26.3%
[27]
  viability, T/C: 18.1%
[28]
  viability, T/C: 14.6%
[29]
  viability, T/C: 9.75%
[30]
  viability, T/C: 4.08%
[31]
  viability, T/C: 20.2%
[32]
  viability, T/C: 18.1%
[33]
  viability, T/C: 16.4%
[34]
  viability, T/C: 12.9%
[35]
  viability, T/C: 8.94%
[36]
  viability, T/C: 3.85%

## Cn1nccc1Nc1nccc(-c2ccn(C(CO)c3ccc(Cl)c(F)c3)c(=O)c2)n1 (stereo not drawn) + CC(Nc1ccc2c(c1)OCCn1cc(N3C(=O)OCC3C(F)F)nc1-2)C(N)=O
Second compound 0.00316 µM
  IC50: 265 nM
Second compound 0.01 µM
  IC50: 113 nM
Second compound 0.0316 µM
  IC50: < 31.6 nM
Second compound 0.1 µM
  IC50: < 31.6 nM
Second compound 0.316 µM
  IC50: < 31.6 nM
Second compound 1 µM
  IC50: < 31.6 nM
[1]
  viability, T/C: 92.5%
[2]
  viability, T/C: 67.2%
[3]
  viability, T/C: 46.7%
[4]
  viability, T/C: 33.7%
[5]
  viability, T/C: 22%
[6]
  viability, T/C: 19.2%
[7]
  viability, T/C: 69.6%
[8]
  viability, T/C: 53.9%
[9]
  viability, T/C: 30.6%
[10]
  viability, T/C: 27.4%
[11]
  viability, T/C: 18.2%
[12]
  viability, T/C: 15%
[13]
  viability, T/C: 47.4%
[14]
  viability, T/C: 37.9%
[15]
  viability, T/C: 23.1%
[16]
  viability, T/C: 17.1%
[17]
  viability, T/C: 11.8%
[18]
  viability, T/C: 9.67%
[19]
  viability, T/C: 33.5%
[20]
  viability, T/C: 23.3%
[21]
  viability, T/C: 15.9%
[22]
  viability, T/C: 9.87%
[23]
  viability, T/C: 7.9%
[24]
  viability, T/C: 5.46%
[25]
  viability, T/C: 21.6%
[26]
  viability, T/C: 16.9%
[27]
  viability, T/C: 10.6%
[28]
  viability, T/C: 6.63%
[29]
  viability, T/C: 4.45%
[30]
  viability, T/C: 2.82%
[31]
  viability, T/C: 18.3%
[32]
  viability, T/C: 13.9%
[33]
  viability, T/C: 7.66%
[34]
  viability, T/C: 4.72%
[35]
  viability, T/C: 3.76%
[36]
  viability, T/C: 2.26%
